Test [1] concerns P27 (DD aptagel) (DNA, aptamer) CGACCGAGGGTACCGCAATAGTACTTA/TTGTTCGCCTATTGTGGGTCGGGTCG
Description: angular SPR of hydrogel film. Conditions: PBS, 2 mM Mg2+, 200-fold diluted rat plasma, 37 °C.

Test [2] deals with P27 (monolayer) (DNA, aptamer) CGACCGAGGGTACCGCAATAGTACTTA/TTGTTCGCCTATTGTGGGTCGGGTCG
Description: SPR, dissociation phase fit. Conditions: PBS, 2 mM Mg2+, pH 7.4, 37 °C, split 2 in solution, independent of analyte concentration. Background: In SPR one partner is held on a chip, and binding of the other changes the refractive index at the surface.

Test [3] has as its system P27.i (monolayer) (DNA, aptamer) CGACCGAGGGTACCGCAATAGTACTTA/TTGTTCGCCTATTGCGGGTCGGGTCG
Description: SPR, dissociation phase fit. Conditions: PBS, 2 mM Mg2+, pH 7.4, 37 °C, split 2 in solution, independent of analyte concentration.

Test [4] has as its system PolyA (PA) aptagel (DNA, single strand) AAAAAAAAAAAAAAAAAAAAAAAAAAA
Description: angular SPR of hydrogel film. Conditions: PBS, 2 mM Mg2+; 37 °C; 1 mM vancomycin; 3 mM poly A, [ene]/[SH] 4.

Test [5] has as its system P27 (MM aptagel) (DNA, aptamer) CGACCGAGGGTACCGCAATAGTACTTA/TTGTTCGCCTATTGTGGGTCGGGTCG
Description: angular SPR and QCM-D of hydrogel film. Conditions: PBS, 2 mM Mg2+; 37 °C; 1 mM vancomycin; 1 mM aptamer; reversible; smallest response.

Test [6] deals with P27 (MD aptagel) (DNA, aptamer) CGACCGAGGGTACCGCAATAGTACTTA/TTGTTCGCCTATTGTGGGTCGGGTCG
Description: angular SPR and QCM-D of hydrogel film. Conditions: PBS, 2 mM Mg2+; 37 °C; 1 mM vancomycin; 1 mM aptamer; reversible.

Test [7] deals with Full (full-length parent aptamer, aptagel) (DNA, aptamer) CGACCGAGGGTACCGCAATAGTACTTATTGTTCGCCTATTGTGGGTCGGGTCG
The test can be described thus: angular SPR and QCM-D of hydrogel film. Conditions: PBS, 2 mM Mg2+; 37 °C; 1 mM vancomycin; 1 mM aptamer; partly irreversible.

Test [8] deals with P27 (DD aptagel) (DNA, aptamer) CGACCGAGGGTACCGCAATAGTACTTA/TTGTTCGCCTATTGTGGGTCGGGTCG
The test can be described thus: angular SPR of hydrogel film, dissociation phase fit. Conditions: PBS, 2 mM Mg2+; pH 7.4, 37 °C; vancomycin below 50 µM; rises to 0.7 above 100 µM; apparent.

The mark [9] stands for this setting: concentration matching refractive index of 10 µM vancomycin.

SMILES strings stand for the structures.

For `CC1(C)S[C@@H]2[C@H](NC(=O)[C@H](N)c3ccccc3)C(=O)N2[C@H]1C(=O)O`, the binding result in test [1] (setting [9]) is “no”.
In the case of `CN[C@H](CC(C)C)C(=O)N[C@H]1C(=O)N[C@@H](CC(N)=O)C(=O)N[C@H]2C(=O)N[C@H]3C(=O)N[C@H](C(=O)N[C@H](C(=O)O)c4cc(O)cc(O)c4-c4cc3ccc4O)[C@H](O)c3ccc(c(Cl)c3)Oc3cc2cc(c3O[C@@H]2O[C@H](CO)[C@@H](O)[C@H](O)[C@H]2O[C@H]2C[C@](C)(N)[C@H](O)[C@H](C)O2)Oc2ccc(cc2Cl)[C@H]1O`, the figures for the koff in test [2], in test [3] and in test [8] were 0.0033 s⁻¹, ~ 0.16 min^-1 and ~ 0.2 min^-1, respectively. Besides, the binding result in test [4] was “no”; in test [5], “weak”; in test [6], “yes”; in test [7], “yes”.
In the case of `CO[C@H]1/C=C/O[C@@]2(C)Oc3c(C)c(O)c4c(O)c(c(/C=N/N5CCN(C)CC5)c(O)c4c3C2=O)NC(=O)/C(C)=C\C=C\[C@H](C)[C@H](O)[C@@H](C)[C@@H](O)[C@@H](C)[C@H](OC(C)=O)[C@@H]1C`, the binding entry in test [1] (setting [9]) is listed as “no”.
In the case of `OC[C@H]1OC(O)[C@H](O)[C@@H](O)[C@@H]1O` (stereo partly shown), in test [1] (80 µM glucose), the binding result was “no”.

For the origin of these results see publication PMC11969548 (2025).
